{"source": "paper PMC7531004", "about": "“Discovery of gramicidin A analogues with altered activities by multidimensional screening of a one-bead-one-compound library” (Nature Communications, 2020)", "key": {"[1]": {"test": "H+/Na+ transport assay of purified peptides", "conditions": "for Supplementary Figure 5 dose-response value (H+/Na+ transport): three replicate lines", "experimental": "First, we evaluated the ion channel function of 1 using liposomes. To mimic a negatively charged Gram-positive bacterial membrane, the liposomes were prepared as large unilamellar vesicles (LUVs) comprising a 19:1 mixture of egg yolk phosphatidylcholine (EYPC) and egg yolk phosphatidylglycerol (EYPG)[57]. Pyranine, a pH-dependent fluorescent dye[58], was encapsulated in the LUVs and a pH gradient was applied across the membrane. H^+/Na^+ transport induced by a peptide was monitored by changes in the fluorescence intensity of pyranine."}, "[2]": {"test_system": "Streptococcus agalactiae JCM5671", "summary_of_the_method": "(§1)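 MICs by CLSI broth microdilution in cation-adjusted Mueller Hinton Broth, with 5% laked horse blood added for streptococci, over 64–0.00024 µg/mL peptide.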"}, "[3]": {"test_system": "Streptococcus pyogenes SSI-9", "conditions": "S. pyogenes", "summary_of_the_method": "as §1"}, "[4]": {"test_system": "Enterococcus faecalis JCM5803", "summary_of_the_method": "as §1"}, "[5]": {"test_system": "Streptococcus pneumoniae NBRC 102642", "conditions": "S. pneumoniae", "summary_of_the_method": "as §1"}, "[6]": {"test_system": "Listeria monocytogenes 10403S", "conditions": "L. monocytogenes", "summary_of_the_method": "as §1"}, "rabbit red blood cells": {"test_system": "rabbit red blood cells", "conditions": "red cells of rabbit, 2 h"}, "[7]": {"test_system": "MSSA1 (methicillin-susceptible Staphylococcus aureus)", "format": "cell-based"}}, "note": "Where “and” joins values, the source holds several entries; their conditions need not be identical. Identical values can stand only once. Like-named read-outs stand apart in the source and are kept apart here. Where a SMILES comes first, the peptide text is derived from it. [ ]: non-standard residue; d: D form. The star is where a group is joined. NHCH2CH2OH = OCCN*; For = O=C*", "data": [{"smiles": "CC(C)C[C@@H](NC(=O)[C@H](C)NC(=O)CNC(=O)[C@@H](NC=O)C(C)C)C(=O)N[C@@H](C)C(=O)N[C@@H](C(=O)N[C@H](C(=O)N[C@@H](C(=O)N[C@@H](Cc1c[nH]c2ccccc12)C(=O)N[C@H](CC(C)C)C(=O)N[C@@H](Cc1c[nH]c2ccccc12)C(=O)N[C@H](CC(C)C)C(=O)N[C@@H](Cc1c[nH]c2ccccc12)C(=O)N[C@@H](C(=O)N[C@@H](Cc1c[nH]c2ccccc12)C(=O)NCCO)C(C)C)[C@H](C)O)C(C)C)C(C)C", "note": "[B12] (For-VGA[dL]A[dV]V[dT]W[dL]W[dL]W[dV]W-NHCH2CH2OH)", "values": [{"measurement": "Supplementary Figure 5 dose-response value (H+/Na+ transport)", "setting": "[1]; concentration 0.000512 nM", "value": "2.818 and 0.0271 and -0.589"}, {"measurement": "Supplementary Figure 5 dose-response value (H+/Na+ transport)", "setting": "[1]; concentration 0.00256 nM", "value": "3.476 and 5.315 and 5.077"}, {"measurement": "Supplementary Figure 5 dose-response value (H+/Na+ transport)", "setting": "[1]; concentration 0.0128 nM", "value": "4.761 and 4.753 and 4.729"}, {"measurement": "Supplementary Figure 5 dose-response value (H+/Na+ transport)", "setting": "[1]; concentration 0.064 nM", "value": "8.321 and 5.0339 and 7.369"}, {"measurement": "Supplementary Figure 5 dose-response value (H+/Na+ transport)", "setting": "[1]; concentration 0.32 nM", "value": "16.8579 and 20.7391 and 16.934"}, {"measurement": "Supplementary Figure 5 dose-response value (H+/Na+ transport)", "setting": "[1]; concentration 1.6 nM", "value": "35.2545 and 35.7349 and 38.3822"}, {"measurement": "Supplementary Figure 5 dose-response value (H+/Na+ transport)", "setting": "[1]; concentration 8 nM", "value": "63.7974 and 60.2094 and 62.8038"}, {"measurement": "Supplementary Figure 5 dose-response value (H+/Na+ transport)", "setting": "[1]; concentration 40 nM", "value": "71.4784 and 67.4712 and 69.6703"}, {"measurement": "Supplementary Figure 5 dose-response value (H+/Na+ transport)", "setting": "[1]; concentration 200 nM", "value": "72.1513 and 73.1412 and 71.1696"}, {"measurement": "Supplementary Figure 5 dose-response value (H+/Na+ transport)", "setting": "[1]; concentration 1000 nM", "value": "74.8337 and 73.0658 and 70.6415"}, {"measurement": "Supplementary Figure 5 dose-response value (H+/Na+ transport)", "setting": "[1]; concentration 5000 nM", "value": "78.5724 and 78.4083 and 76.7501"}, {"measurement": "EC50", "setting": "[1]; read-out: EC50, H+/Na+ transport assay, 1st experiment", "value": 1.66, "unit": "nM"}, {"measurement": "EC50", "setting": "[1]; read-out: EC50, H+/Na+ transport assay, 2nd experiment", "value": 0.838, "unit": "nM"}, {"measurement": "EC50", "setting": "[1]; read-out: EC50, H+/Na+ transport assay, 3rd experiment", "value": 2.98, "unit": "nM"}, {"measurement": "EC50", "setting": "[1]; read-out: H+/Na+ transport activity EC50, EYPC/EYPG (19:1) LUVs", "value": 1.8, "unit": "nM"}, {"measurement": "EC50", "setting": "[1]; read-out: H+/Na+ transport activity/EC50, mean ± SD of three independent experiments", "value": "1.83 ± 1.08", "unit": "nM"}, {"measurement": "Antibacterial activity MIC", "setting": "[2]; JCM5671", "value": 8.6, "unit": "µM"}, {"measurement": "antibacterial activity/MIC", "setting": "[2]; S. agalactiae", "value": 16, "unit": "µg/mL"}, {"measurement": "antibacterial activity/MIC", "setting": "[3]", "value": 0.13, "unit": "µg/mL"}, {"measurement": "antibacterial activity/MIC", "setting": "[4]; E. faecalis", "value": 2, "unit": "µg/mL"}, {"measurement": "Antibacterial activity MIC", "setting": "[4]; JCM5803", "value": 1.1, "unit": "µM"}, {"measurement": "antibacterial activity/MIC", "setting": "[5]", "value": 0.016, "unit": "µg/mL"}, {"measurement": "antibacterial activity/MIC", "setting": "[6]", "value": 4, "unit": "µg/mL"}, {"measurement": "IC50", "setting": "Cytotoxicity IC50", "value": 390, "unit": "nM"}, {"measurement": "IC50", "setting": "IC50, mammalian cytotoxicity assay", "value": 340, "unit": "nM"}, {"measurement": "IC50", "setting": "cytotoxicity against P388 cells/IC50", "value": "387 ± 90.9", "unit": "nM"}, {"measurement": "Hemolytic activity HC10 (concentration causing 10% hemolysis)", "setting": "rabbit red blood cells", "value": "> 3000", "unit": "nM"}, {"measurement": "antibacterial activity/MIC", "setting": "[7]", "value": 4, "unit": "µg/mL"}]}]}
